Experiment [1] concerns Neonatal rat cardiac myocytes. The experiment can be described thus: TUNEL staining of H2O2-induced apoptosis. Format: cell-based. How it is done: (§1) Neonatal rat cardiac myocytes in primary culture were randomly assigned to one of four experimental groups: 1) control group, 2) incubation with 200 μM H2O2, 3) 100 μM diazoxide, applied together with 200 μM H2O2, 4) 100 μM diazoxide and 500 μM 5-HD, applied together with 200 μM H2O2. […] Staining was conducted as follows. TUNEL staining was performed according to the manufacturer's protocol (Roche Molecular Biochemicals). Fluorescein labels incorporated in nucleotide polymers were detected by laser scanning confocal microscopy at excitation wavelength of 488 rim (argon laser). […] Necrotic cells had been excluded from these specimens since they became non-adherent and were removed when the medium was decanted and the cell layers were washed in PBS.

Experiment [2] concerns caspase-3. Briefly: Activated caspase-3 immunofluorescent staining. Format: cell-based, rat. As to the method:
as §1, with “PBS. […] This effect was blocked by the mitoKATP channel antagonist 5-HD (FIG. 1D). […] That immunofluorescence was conducted as follows: cells were plated on glass coverslips, treated with drugs as indicated, fixed in ice-cold 1:1 mixture of methanol/acetone, blocked with 10% normal goat serum and 0.075% saponin in PBS, and incubated with primary antibody dissolved in blocking solution at a dilution of 1:100. […] These coverslips were mounted with antifading fluorescence mounting medium and were examined by a laser scanning confocal microscope (Zeiss, LSM 410), using 40x water-immersion lens and 2x optical zoom. […]” for “PBS.”

Experiment [3] has as its system poly(ADP-ribose) polymerase (PARP). The experiment can be described thus: Cleaved PARP immunofluorescent staining. Format: cell-based, rat. As to the method:
as §1, with “PBS. […] This effect was blocked by the mitoKATP channel antagonist 5-HD (FIG. 1D). […] That immunofluorescence was conducted as follows: cells were plated on glass coverslips, treated with drugs as indicated, fixed in ice-cold 1:1 mixture of methanol/acetone, blocked with 10% normal goat serum and 0.075% saponin in PBS, and incubated with primary antibody dissolved in blocking solution at a dilution of 1:100. […] These coverslips were mounted with antifading fluorescence mounting medium and were examined by a laser scanning confocal microscope (Zeiss, LSM 410), using 40x water-immersion lens and 2x optical zoom. […]” for “PBS.”

In experiment [4] the test system is Neonatal rat cardiac myocytes. The experiment can be described thus: Mitochondrial membrane potential, JC-1 confocal image analysis, cardiac myocytes. Format: cell-based. As to the method: Redistribution of cytochrome c has been linked to the loss of mitochondrial membrane potential (ΨΔ) and the opening of the mitochondrial permeability transition pore (23). We assessed ΨΔ in H2O2-stimulated myocytes using a fluorescent probe, JC-1 (24). […] Cells exposed to 200 μM H2O2 for 2 h lose punctate red staining (FIG. 2B), in favor of a diffuse green cytosolic signal indicative of the loss of ΨΔ. […] The protective effect of diazoxide is blocked by 500 μM 5-HD (FIG. 2D). These observations were rendered quantitative by automated image analysis (24). FIG. 2E summarizes the red fluorescence, an indicator of ΨΔ.
(§2) Cytoprotective effects of diazoxide in neurons also was evaluated. […] Staining was conducted as follows: loss of mitochondrial membrane potential (ΨΔ) was assessed using either a laser scanning confocal microscope or flow cytometry analysis of cells stained with 5,5′,6,6′-tetrachloro-1,1′,3,3′-tetraethylbenzimidazolecarbocyanide iodine (JC-1, Molecular Probes). Cells were incubated with 2 μg/mL JC-1 for 10 min in 37° C. After washing the dye, cells on dishes were scanned with a confocal microscope at 10x magnification. The dye was excited by the 488 nm line of an argon laser, and the 543 nm line of a helium/neon laser. The red emission of the dye is due to a potential-dependent aggregation in the mitochondria, reflecting ΨΔ. Green fluorescence reflects the monomeric form of JC-1, occuring in the cytosol after mitochondrial membrane depolarization. The fluorescence intensity of the field was measured using integrated image analysis software (Simple32; Compix, Inc.), which was programmed to automatically detect all areas of red or green fluorescence above background. The data are plotted as mean values of arbitrary units of fluorescence intensity. For flow cytometry analysis, cells were harvested by trypsinization after loading of the dye, and analyzed by FACScan (10,000 cells/sample). The excitation wavelength was 488 nm, and the emission fluorescence for JC-1 was monitored at 530 (FL-1) and 582 nm (FL-2). The flow cytometry data are analyzed using Cell Quest (Becton Dickinson, Immunocytometry Systems).

Experiment [5] concerns PARP holoenzyme. Briefly: Immunoblot of PARP holoenzyme. In kind it is cell-based, rat. In general terms: In western blotting, separated proteins are transferred to a membrane and probed.
Experimental: (U) Immunoblot of PARP in neonatal rat cardiac myocytes. Cell lysates from each experimental group were subjected to immunoblot analysis (30 μg protein/lane) with monoclonal antibody against 117-kDa PARP holoenzyme. Cells were treated for either 8 h or 16 hours. To confirm these findings using complementary methods, we examined PARP protein levels as a biochemical indicator of the activation of downstream caspases in each group.
The subject of experiment [6] is Neonatal rat cardiac myocytes. The experiment can be described thus: Mitochondrial membrane potential, JC-1 flow cytometry, cardiac myocytes. Format: cell-based. As to the method: The effects of mitoKATP channel activation by flow cytometry (FIGS. 2F-J) were further quantified. Incubation with 200 μM H2O2 for 2 h decreased the red fluorescence and shifted the distribution curve leftward. […] To confirm the central role of mitoKATP channels, we examined another mitoKATP channel opener, pinacidil.
as §2
For orientation: Flow cytometry measures light scatter and fluorescence of single cells or particles in a stream.

Experiment [7] has as its system cytochrome c. The experiment can be described thus: Cytochrome c immunofluorescence (translocation to cytosol). In kind it is cell-based, rat. How it is done: as §1, with “PBS. […] This effect was blocked by the mitoKATP channel antagonist 5-HD (FIG. 1D). […] That immunofluorescence was conducted as follows: cells were plated on glass coverslips, treated with drugs as indicated, fixed in ice-cold 1:1 mixture of methanol/acetone, blocked with 10% normal goat serum and 0.075% saponin in PBS, and incubated with primary antibody dissolved in blocking solution at a dilution of 1:100. […] These coverslips were mounted with antifading fluorescence mounting medium and were examined by a laser scanning confocal microscope (Zeiss, LSM 410), using 40x water-immersion lens and 2x optical zoom. […]” for “PBS.”

Experiment [8] concerns caspase-7. The experiment can be described thus: Activated caspase-7 immunofluorescent staining. Format: cell-based, rat. As to the method: as §1, with “PBS. […] This effect was blocked by the mitoKATP channel antagonist 5-HD (FIG. 1D). […] That immunofluorescence was conducted as follows: cells were plated on glass coverslips, treated with drugs as indicated, fixed in ice-cold 1:1 mixture of methanol/acetone, blocked with 10% normal goat serum and 0.075% saponin in PBS, and incubated with primary antibody dissolved in blocking solution at a dilution of 1:100. […] These coverslips were mounted with antifading fluorescence mounting medium and were examined by a laser scanning confocal microscope (Zeiss, LSM 410), using 40x water-immersion lens and 2x optical zoom. […]” for “PBS.”

Experiment [9] concerns rat cerebellar granule neurons. The experiment can be described thus: Mitochondrial membrane potential, JC-1 staining, cerebellar granule neurons. Format: cell-based. How it is done: as §2, with “The red emission of the dye is due to a potential-dependent aggregation in the mitochondria, reflecting ΨΔ.” left out, “The flow cytometry data are analyzed using Cell Quest (Becton Dickinson, Immunocytometry Systems).” left out

Experiment [10] has as its system mitoKATP channel. Particulars: intact heart cells; read-out: value for mitoKATP channel activation; cited from earlier work.
[11] abbreviates: 500 μM 5-HD + 100 μM diazoxide + 200 μM H2O2.
The mark [12] stands for this setting: 100 μM diazoxide with 200 μM H2O2.

For the compound `CCCCCC(O)CCCC(=O)O` (stereo not shown) [5-HD, 5-hydroxydecanoate], in experiment [1] (500 μM 5-HD + 100 μM diazoxide + 200 μM H2O2, 16 h), the “effect on diazoxide protection against TUNEL positivity” value is reported as “blocked”. In addition, in experiment [2] (setting [11]), the “effect on diazoxide inhibition of caspase-3 activation” value was “negated the effect of diazoxide”. Further, the “effect on diazoxide inhibition of PARP cleavage” value in experiment [3] (setting [11]) is “prevented the diazoxide effect”. Moreover, the “effect on diazoxide prevention of loss of ΨΔ, automated image analysis” value in [4] (500 μM 5-HD + 100 μM diazoxide + 200 μM H2O2 for 2 h) is reported as “antagonized the salutary effect of diazoxide”. In experiment [4] (500 μM 5-HD + 100 μM diazoxide + 200 μM H2O2 for 2 h, confocal images), the “effect on diazoxide protection of ΨΔ” value is listed as “blocked”. Moreover, the “effect on diazoxide protection of PARP holoenzyme” value in experiment [5] (5-HD + diazoxide + H2O2, 8 h or 16 hours) is listed as “abolished the protective effect of diazoxide”. The “effect of 5-HD alone on ΨΔ” value in experiment [6] (5-HD 500 μM + H2O2, absence of diazoxide) is “no effect on ΨΔ”. In addition, the “effect on diazoxide protection of ΨΔ, flow cytometry” value in experiment [6] (5-HD 500 μM + diazoxide 100 μM + 200 μM H2O2) is on record as “abolished the effect of diazoxide”. In addition, the “effect on diazoxide inhibition of cytochrome c translocation” value in experiment [7] (setting [11]) is “abrogated the effect of diazoxide”. In addition, in experiment [8] (setting [11]), the “effect on diazoxide inhibition of caspase-7 activation” value is “abolished the anti-apoptosic effect of diazoxide”. Moreover, the “effect on diazoxide protection of ΨΔ in neurons” value in experiment [9] (500 μM 5-HD + 100 μM diazoxide + 100 μM H2O2 for 1 h) is listed as “blocked”.

For the compound `CC1=NS(=O)(=O)c2cc(Cl)ccc2N1` [diazoxide], in experiment [1] (100 μM diazoxide with 200 μM H2O2, 16 h), the “H2O2-induced TUNEL positive nuclei” value is “decreased the frequency of H2O2-induced TUNEL positive nuclei”. For the same compound, the “H2O2-induced activation of caspase-3” value in experiment [2] (setting [12]) is “inhibited the H2O2-induced activation of caspase-3”. In addition, the “H2O2-induced PARP cleavage” value in experiment [3] (setting [12]) was “inhibited the H2O2-induced PARP cleavage”. The “H2O2-induced loss of mitochondrial membrane potential (ΨΔ), JC-1 red staining” value in [4] (100 μM diazoxide, 200 μM H2O2 for 2 h, confocal images) is listed as “protects against H2O2-induced loss of mitochondrial integrity”. Also, the EC50 in experiment [4] (Rattus norvegicus, 200 μM H2O2 for 2 h, red fluorescence, automated image analysis, read-out: EC50 for prevention of loss of ΨΔ) is 40 µM; in experiment [10] it was 27 µM. Besides, in experiment [4] (diazoxide 20-200 μM, 200 μM H2O2 for 2 h), the “loss of ΨΔ, red fluorescence by automated image analysis” value was “prevented loss of ΨΔ in a dose-dependent manner”. The “loss of 117-kDa PARP holoenzyme band” value in experiment [5] (diazoxide with H2O2, 8 h or 16 hours) was “attenuates the loss of PARP holoenzyme”. In addition, the “H2O2-induced dissipation of ΨΔ, red fluorescence distribution” value in experiment [6] (diazoxide 20, 50, 100 μM, 200 μM H2O2 for 2 h) is on record as “prevented the H2O2-induced dissipation of ΨΔ in a dose-dependent manner”. The “H2O2-induced cytochrome c translocation to the cytoplasm” value in experiment [7] (100 μM diazoxide with 200 μM H2O2, 16 hours) is recorded as “inhibited the translocation of cytochrome c”. The “H2O2-induced activation of caspase-7” value in experiment [8] (setting [12]) is reported as “inhibited H2O2-induced activation of caspase-7”. Further, the “H2O2-induced loss of ΨΔ in neurons, JC-1 red staining” value in experiment [9] (100 μM diazoxide, 100 μM H2O2 for 1 h) was “protects against H2O2-induced loss of mitochondrial integrity”.

On to `COc1ccc(Cl)cc1C(=O)NCCc1ccc(S(=O)(=O)NC(=O)NC2CCCCC2)cc1` [glibenclamide], for which the “effect of KATP blocker on diazoxide protection of ΨΔ” value in experiment [6] (glibenclamide 10 μM with diazoxide and H2O2) is recorded as “reversed the salutary effect of diazoxide”.

Take `CC(N/C(=N\C#N)Nc1ccncc1)C(C)(C)C` (stereo not shown) [pinacidil]: the “restoring the loss of ΨΔ induced by H2O2” value in [6] (100 μM pinacidil, 200 μM H2O2) is “equi-effective to diazoxide”.
